The subject of assay [1] is Micro-Tom tomatoes, AvsYS1 transformants (MT*) and untransformed (MT). Description: Hydroponic growth of Micro-Tom tomatoes under iron limiting conditions with iron provided as FeCl3/avenic acid. The format is in vivo, tomato. Conditions: Hoagland's solution (-Fe), pH 7.4, 10 μM FeCl3 complexed with 15 μM avenic acid. From the text: RNA was isolated from […]. A cDNA (AvsYSl) was isolated and its functionality confirmed as a phytosiderophore/Fe^+3 transporter that mitigates the effects of Iron Deficiency Chlorosis in transgenic Micro-Tom™ tomatoes when the nutrient medium is supplemented with the oat phytosiderophore, avenic acid. […] Final confirmation of the AvsYS1 transporter's functionality was obtained by comparing Micro-Tom™: AvsYS1 (MT*) transformants with non-transgenic Micro-Tom™ grown hydroponically under iron limiting conditions. (See, e.g., Shikata et al. (2016) “Micro-Tom tomato as an alternative plant model system: mutant collection and efficient transformation” Methods Mol. Biol. 1363:47-55.) Samples were grown in Hoagland's solution (—Fe) at pH 7.4. Iron was provided as 10 μM FeCl3/15 μM avenic acid. Tomatoes normally optimally grow at pH 5.6-6.8. Sample 3 was labelled MT*. This was a Micro-Tom™ variety was transformed with Fe+3/avenic acid transporter isolated from roots of iron starved oats. Sample 4 was an untransformed Micro-Tom™ (MT) plant.
MT* tomatoes grew robustly in Hoagland's solution at a pH of 7.4 supplemented with iron was provided at 10 μM FeCl3 complexed with 15 μM avenic acid.

Assay [2] concerns AvsYS1 avenic acid/Fe+3 transporter. Description: Yeast growth assay in liquid medium with phytosiderophore/Fe+3 complex as the only available iron, strain DEY1453 transformed with pJKD1 (pYES2/AvsYS1) or pYES2. It is filed as cell-based, Avena sativa. The following applies: for growth of yeast with transporter (DEY1453:pJKD1, 53K): S. cerevisiae DEY1453:pJKD1 (pYES2/AvsYS1), YNB minimal medium pH 7.5, BPDS, iron only as Fe+3 complexed with the substance. From the text:
AvsYS1 (Genbank FJ477297.1) was isolated using 5′RACE from the roots of iron starved oats (Avena sativa). Primers were designed by comparing one functionally confirmed phytosiderophore/Fe^+3 transporter (HvYS1) and other iron transport proteins. After obtaining a full-length clone, we subcloned the gene (AvsYS1) into a yeast galactose inducible expression vector (pYES2). The resultant plasmid was designated pJKD1. We obtained a yeast strain that lacks the ability to take up ferric iron and transformed it with pYES2 and pJKD1. The transformants were grown under identical conditions in which the only iron available was in the Fe^+3/avenic acid complex.
We engineered the AvsYS1 gene into a galactose inducible expression systems vector (pYES2). Our first major result was the functional confirmation of the AvsYS1 gene. We transformed pYES2 and pJKD1 (pYES2/AvsYS1) into a strain of S. cerevisiae (DEY1453) that lacks the ability to take up Fe^3+. In the process, we developed a new assay based on growth in liquid medium. The advantage of this assay over more traditional assays used in yeast-based PS/Fe^+3 assays is that it is quantifiable. Other assays (e.g., Murata, 2006) grow yeast on a solid plate, and qualitative growth of colonies is used. With our assay, we can generate numerical data based on the density as measured by the absorbance at 600 nm. […] Further detail is provided below.
53Y=DEY1453:pYES2 (no transporter) 53K=DEY1453:pJKD1 (pYES2/AvsYS1 [transporter]) DOB—Complete medium, supplemented w/FeSo4, ampicillin 50 YNB-minimal medium, pH7.5, BPDS (ferrous chelator), ampicillin,
Protocols included: 53Y and 53K in DOB+FeSO4, 53Y and 53K in YNB supplemented with Avenic acid; 53Y and 53K supplemented with BPA-1-068B; 53Y and 53K in YNB w/ no supplements; uninoculated YNB; uninoculated DOB.
53Y=DEY1453:pYES2 (no transporter) 53K=DEY1453:pJKD1 (pYES2/AvsYS1 [transporter]) DOB—Complete medium, supplemented w/FeSo4, ampicillin 50 YNB-minimal medium, pH7.5, BPDS (ferrous chelator), ampicillin, Ø=no supplementation
Protocols included: 53Y and 53K, supplemented with Avenic acid, 53Y and 53K supplemented with BPA-1-068B, 53Y and 53K in YNB w/ no supplements.
3Y=DEY1453:pYES2 (no transporter) 3K=DEY1453:pJKD1 (pYES2/AvsYS1 [transporter]) Strains grown in YNB/Gal, pH 7.5, Amp50, Avenic acid: Fe^+3, 5:1
Another interesting observation was made in relation to growth of the DEY1453:pJKD1 using one of the analogs complexed with Fe^+3. […] This was a very significant result because it provided strong (though not dispositive) evidence in support of our Trojan Horse delivery technology.

Take `O=C(O)[C@H](CCO)NCC[C@H](NCC[C@H](O)C(=O)O)C(=O)O` [avenic acid, Avenic Acid]: the “growth of MT* (AvsYS1 transformed) tomatoes” value in assay [1] (16 days) is on record as “grew robustly”. Besides, in assay [1] (after 16 days), the “iron deficiency chlorosis in untransformed (MT) tomatoes” value is “Iron deficiency chlorosis was observed in new leaves”. Besides, the “growth of yeast with transporter (DEY1453:pJKD1, 53K)” value (shortened to “growth of yeast with transporter”) in assay [2] is “able to grow vigorously”. Besides, the “growth of yeast without transporter (DEY1453:pYES2, 53Y)” value in assay [2] (S. cerevisiae DEY1453:pYES2 (no transporter), iron only as Fe+3/avenic acid complex) is recorded as “could not”.

Consider `O=C(CC(NCCC(NCC[C@H](O)C(=O)O)C(=O)O)C(=O)O)OCc1ccccc1` (stereo partly drawn) [BPA-1-068B], for which the “growth of yeast with transporter” value in assay [2] was “able to grow”; in assay [2] (listed as drawing 7) it was “impressive”. In assay [2] (ferric iron supplied with the analog, compared to DEY1453:pYES2 controls), the “growth rate of DEY1453:pJKD1” value is given as “slower, but undeniably robust”. For the same compound, the “uptake by the avenic acid transporter” value in assay [2] (yeast, in the presence of iron) was “able to be taken up”.

With `O=C(O)C(CO)NCCC(NCC[C@H](O)C(=O)O)C(=O)O` (stereo partly drawn) [MGS-2-128BF], in assay [2], the “growth of yeast with transporter” value is reported as “supported growth as well as avenic acid”.
